Assay [1] in a line: HepG2 cell cytotoxicity, dose response, cytotoxicity control, cherry-picks, set 5 (AID 1053118). It is filed as functional, cell-based.
The target of assay [2] is Apoptotic protease-activating factor 1 (Homo sapiens, UniProt O14727). It is filed as functional.
Assay [3] has as its target T1, Microphthalmia-associated transcription factor (Homo sapiens, UniProt O75030).
T1 sequence (O75030 whole entry): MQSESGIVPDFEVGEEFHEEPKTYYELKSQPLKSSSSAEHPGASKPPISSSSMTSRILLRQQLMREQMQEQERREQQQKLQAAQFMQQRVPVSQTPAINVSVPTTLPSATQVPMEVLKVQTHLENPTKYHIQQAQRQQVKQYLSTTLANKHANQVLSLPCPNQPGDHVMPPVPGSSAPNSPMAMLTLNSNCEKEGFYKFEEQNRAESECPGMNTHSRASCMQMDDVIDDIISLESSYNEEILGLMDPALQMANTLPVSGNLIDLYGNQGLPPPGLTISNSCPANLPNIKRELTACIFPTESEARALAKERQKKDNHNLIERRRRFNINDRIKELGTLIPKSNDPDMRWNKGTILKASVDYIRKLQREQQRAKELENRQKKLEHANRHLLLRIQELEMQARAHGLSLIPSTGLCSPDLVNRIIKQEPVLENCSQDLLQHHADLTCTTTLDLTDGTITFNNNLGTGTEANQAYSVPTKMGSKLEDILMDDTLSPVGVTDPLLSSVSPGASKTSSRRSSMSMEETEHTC
Kind of assay: TRPM1 promoter luciferase signal decrease, dose response, MITF inhibitor project, cell-based, SK-MEL-5, cherry-picked, set 3 (AID 493073).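 Also: SK-MEL-5 melanoma cells with luciferase driven by the MITF target TRPM1 promoter.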 The class given is functional.

Assay [4] can be described thus: HepG2 cell cytotoxicity, dose response, cytotoxicity control, ATP luminescence, cherry-pick, activator set 2 (AID 1053143). It is filed as functional, cell-based.
Assay [5] has as its target 1-phosphatidylinositol 4,5-bisphosphate phosphodiesterase beta-3 (Homo sapiens, UniProt Q01970). Kind of assay: Fluorescence-based biochemical high throughput dose response assay to identify inhibitors of phospholipase C isozymes (PLC-B3).
For assay [6], the target named is 1-phosphatidylinositol 4,5-bisphosphate phosphodiesterase gamma-1 (Homo sapiens, UniProt P19174). The assay can be described thus: Counterscreen for inhibitors of phospholipase C isozymes (PLC-B3): Fluorescence-based biochemical high throughput dose response assay to identify inhibitors of phospholipase C isozymes (PLC-gamma1). Background: A counterscreen serves to expose hits that act by an unwanted route or on another target.
Chain of 1-phosphatidylinositol 4,5-bisphosphate phosphodiesterase gamma-1 (P19174 whole entry): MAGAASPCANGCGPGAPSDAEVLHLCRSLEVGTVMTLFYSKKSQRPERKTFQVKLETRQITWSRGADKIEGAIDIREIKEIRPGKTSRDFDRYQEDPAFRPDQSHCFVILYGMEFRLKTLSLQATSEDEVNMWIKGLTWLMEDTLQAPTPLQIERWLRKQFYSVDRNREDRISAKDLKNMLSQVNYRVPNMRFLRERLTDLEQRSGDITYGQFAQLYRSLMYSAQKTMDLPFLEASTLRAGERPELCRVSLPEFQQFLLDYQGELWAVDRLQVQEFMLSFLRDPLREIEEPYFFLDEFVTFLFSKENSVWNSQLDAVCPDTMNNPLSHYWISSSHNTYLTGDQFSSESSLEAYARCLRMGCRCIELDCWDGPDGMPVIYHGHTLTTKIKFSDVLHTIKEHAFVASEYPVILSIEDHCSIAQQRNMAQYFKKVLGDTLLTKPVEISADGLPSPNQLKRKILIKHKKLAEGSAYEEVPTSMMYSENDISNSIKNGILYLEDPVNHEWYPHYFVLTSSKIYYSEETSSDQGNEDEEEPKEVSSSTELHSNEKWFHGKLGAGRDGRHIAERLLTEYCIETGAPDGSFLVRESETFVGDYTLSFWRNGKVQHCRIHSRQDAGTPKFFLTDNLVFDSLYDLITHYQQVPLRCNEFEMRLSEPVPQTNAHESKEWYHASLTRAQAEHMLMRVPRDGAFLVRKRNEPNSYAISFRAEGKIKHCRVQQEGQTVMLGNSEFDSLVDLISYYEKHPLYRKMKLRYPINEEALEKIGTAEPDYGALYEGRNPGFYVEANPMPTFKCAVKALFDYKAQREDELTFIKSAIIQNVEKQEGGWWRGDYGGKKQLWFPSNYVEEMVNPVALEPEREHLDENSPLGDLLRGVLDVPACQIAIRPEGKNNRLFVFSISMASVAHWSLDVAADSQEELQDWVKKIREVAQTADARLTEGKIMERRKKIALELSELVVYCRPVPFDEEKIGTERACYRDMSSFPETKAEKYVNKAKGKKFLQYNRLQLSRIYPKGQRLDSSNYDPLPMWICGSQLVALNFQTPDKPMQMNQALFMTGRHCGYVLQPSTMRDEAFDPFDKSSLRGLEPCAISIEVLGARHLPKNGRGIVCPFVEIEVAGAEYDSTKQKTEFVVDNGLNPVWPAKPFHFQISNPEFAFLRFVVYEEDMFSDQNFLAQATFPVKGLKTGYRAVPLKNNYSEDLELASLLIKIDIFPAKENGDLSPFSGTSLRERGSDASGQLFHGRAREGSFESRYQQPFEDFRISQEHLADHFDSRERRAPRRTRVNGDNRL

For assay [7], the target named is Alkaline phosphatase, placental type (Homo sapiens, UniProt P05187). Kind of assay: PLAP enzyme inhibitors, confirmation, biochemical, luminescence (AID 1512). It is filed as functional.
Chain of Alkaline phosphatase, placental type (P05187 whole entry): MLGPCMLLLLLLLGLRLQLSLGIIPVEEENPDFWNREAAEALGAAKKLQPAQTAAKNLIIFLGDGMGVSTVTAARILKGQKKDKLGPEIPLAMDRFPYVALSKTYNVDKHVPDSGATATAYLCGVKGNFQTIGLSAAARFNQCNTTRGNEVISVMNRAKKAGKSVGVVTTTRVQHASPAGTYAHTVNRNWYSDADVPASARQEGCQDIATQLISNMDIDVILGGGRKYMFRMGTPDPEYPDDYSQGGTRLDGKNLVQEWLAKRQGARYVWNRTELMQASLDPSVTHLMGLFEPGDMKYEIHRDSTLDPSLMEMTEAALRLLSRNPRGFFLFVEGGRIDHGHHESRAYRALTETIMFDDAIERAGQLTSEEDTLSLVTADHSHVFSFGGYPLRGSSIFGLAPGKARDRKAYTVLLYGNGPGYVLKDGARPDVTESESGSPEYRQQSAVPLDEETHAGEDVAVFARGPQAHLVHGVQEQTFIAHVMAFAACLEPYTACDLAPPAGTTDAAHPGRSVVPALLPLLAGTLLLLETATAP
Assay [8] in a line: human group III sPLA2 inhibitors, dose response, biochemical, QFRET, IC50 (AID 743457).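 Also: green fluorescence rise as the enzyme cleaves BODIPY PC-A2 in liposomes; potency for inhibition of the enzyme.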
Assay [9] in a line: cells.
In assay [10] the target is T2, Oxysterols receptor LXR-beta (Homo sapiens, UniProt P55055).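 Also: Cell-based luminescence dose-response assay of agonist activity at LXR, run as a confirmatory counterscreen to a daf-12 agonist screen; HEK293 cells with Gal4-LXR fusion and GAL4-driven luciferase reporter; agonist potency from rising luciferase signal of a Gal4-LXR reporter.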
T2 sequence (P55055 whole entry): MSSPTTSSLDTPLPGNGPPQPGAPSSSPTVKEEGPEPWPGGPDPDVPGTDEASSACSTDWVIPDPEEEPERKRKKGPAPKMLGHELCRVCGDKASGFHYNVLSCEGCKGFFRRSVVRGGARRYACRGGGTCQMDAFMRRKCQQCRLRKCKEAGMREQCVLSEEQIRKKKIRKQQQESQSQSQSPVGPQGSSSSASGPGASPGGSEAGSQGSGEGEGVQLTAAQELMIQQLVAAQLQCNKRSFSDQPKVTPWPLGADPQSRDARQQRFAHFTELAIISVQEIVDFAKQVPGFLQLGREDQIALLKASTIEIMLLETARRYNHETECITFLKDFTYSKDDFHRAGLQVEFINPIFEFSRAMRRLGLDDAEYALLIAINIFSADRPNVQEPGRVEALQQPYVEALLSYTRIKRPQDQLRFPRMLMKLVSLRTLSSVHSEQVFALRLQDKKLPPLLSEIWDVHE
It is filed as functional, cell-based.

Assay [11] is described as follows: HEp-2 cell cytotoxicity, dose response, cytotoxicity control for RSV inhibitor project, HTS (AID 2410). It is filed as functional. The following applies: human respiratory syncytial virus.
Assay [12] is described as follows: inhibitors of intracellular T. cruzi replication, confirmation, NIH3T3 host cells, beta-gal luminescence (AID 2044).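 Also: intracellular parasites grown in NIH/3T3 mouse fibroblasts as host cells; luminescent beta-galactosidase reporter signal from transgenic T. cruzi replicating inside host cells; inhibitors lower the luminescence signal.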 It is filed as functional, cell-based.
A short description of assay [13]: cells. The source holds these as a separate data set.
In assay [14] the target is Caspase-6 (Homo sapiens, UniProt P55212). Kind of assay: human caspase-6 inhibitors, dose response, biochemical, VEID-R110 fluorescence, cherry-pick (AID 720632).
Chain of Caspase-6 (P55212 24-179 limits assumed): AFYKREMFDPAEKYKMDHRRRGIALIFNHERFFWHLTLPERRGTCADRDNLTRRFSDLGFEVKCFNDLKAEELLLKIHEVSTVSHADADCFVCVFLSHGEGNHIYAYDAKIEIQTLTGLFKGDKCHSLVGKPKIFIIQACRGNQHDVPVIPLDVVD
Chain of Caspase-6 (P55212 194-293 limits assumed): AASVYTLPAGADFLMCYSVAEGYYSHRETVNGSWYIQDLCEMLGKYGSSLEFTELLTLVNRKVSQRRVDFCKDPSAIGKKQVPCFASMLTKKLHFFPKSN
A short description of assay [15]: cytotoxicity toward NIH3T3 fibroblasts, dose response, counter-screen, cell-based, ATP luminescence, mouse fibroblasts (AID 2010).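 Also: cells exposed to compound for about 90 hours before reading.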 It is filed as functional.
Assay [16] concerns the target Metabotropic glutamate receptor 3 (Rattus norvegicus, UniProt P31422). The assay can be described thus: mGlu3 NAM potency via calcium readout, dose response, mGlu3 NAM project, TREx293 cells, Galpha15, calcium flux (AID 651840). It is filed as functional.
Assay [17] in a line: reduction of Shn3 3'UTR firefly luciferase signal, dose response, Schnurri-3 inhibitor project, cell-based, Clone20 osteoblasts, cherry-pick, set 2 (AID 720490).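 Also: actives lower the luminescence signal as inhibitors.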 The class given is functional.
A short description of assay [18]: control 3'UTR Renilla luciferase suppression, dose response, counter-screen for Shn3 inhibitor project, cell-based, Clone20-Shn3RL, cherry-picked (AID 624133). The class given is functional.
The subject of assay [19] is INS1. Kind of assay: beta cell apoptosis inhibitors, cytokine rescue, dose response, luminescence, retest (AID 449756).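 Also: cell death triggered by IL-1 beta plus TNF-alpha plus IFN-gamma mixture; protective hits raise ATP signal compared with cytokine alone wells.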 The following applies: Rattus norvegicus, INS1. It is filed as functional, cell-based.
The nature of assay [20]: inhibitors of control Renilla luciferase reporter, dose response, counter-screen for Shn3 3'UTR targeting project, Clone20-Shn3RL cells, dual-Glo, cherry-pick, set 2 (AID 720724). The note with it: Dual-Go Shn3RL. The class given is functional, cell-based. A general note: In a reporter assay the amount or activity of a reporter protein is the signal.
Assay [21] in a line: Shn3 3'UTR reporter inhibitors, dose response, cell-based, Clone20 osteoblasts, firefly luciferase, cherry-picked (AID 624132).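 Also: firefly luciferase luminescence from reporter carrying the Shn3 3'UTR in osteoblasts.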 It is filed as functional.
The nature of assay [22]: HepG2 cell cytotoxicity, dose response, cytotoxicity control for Shn3 inhibitor project, CellTiter-Glo, cherry-picked (AID 624134). The class given is functional, cell-based.

Molecules are shown by their SMILES. Calls of active or inactive are those of the source.

Chain of 1-phosphatidylinositol 4,5-bisphosphate phosphodiesterase beta-3 (Q01970 whole entry): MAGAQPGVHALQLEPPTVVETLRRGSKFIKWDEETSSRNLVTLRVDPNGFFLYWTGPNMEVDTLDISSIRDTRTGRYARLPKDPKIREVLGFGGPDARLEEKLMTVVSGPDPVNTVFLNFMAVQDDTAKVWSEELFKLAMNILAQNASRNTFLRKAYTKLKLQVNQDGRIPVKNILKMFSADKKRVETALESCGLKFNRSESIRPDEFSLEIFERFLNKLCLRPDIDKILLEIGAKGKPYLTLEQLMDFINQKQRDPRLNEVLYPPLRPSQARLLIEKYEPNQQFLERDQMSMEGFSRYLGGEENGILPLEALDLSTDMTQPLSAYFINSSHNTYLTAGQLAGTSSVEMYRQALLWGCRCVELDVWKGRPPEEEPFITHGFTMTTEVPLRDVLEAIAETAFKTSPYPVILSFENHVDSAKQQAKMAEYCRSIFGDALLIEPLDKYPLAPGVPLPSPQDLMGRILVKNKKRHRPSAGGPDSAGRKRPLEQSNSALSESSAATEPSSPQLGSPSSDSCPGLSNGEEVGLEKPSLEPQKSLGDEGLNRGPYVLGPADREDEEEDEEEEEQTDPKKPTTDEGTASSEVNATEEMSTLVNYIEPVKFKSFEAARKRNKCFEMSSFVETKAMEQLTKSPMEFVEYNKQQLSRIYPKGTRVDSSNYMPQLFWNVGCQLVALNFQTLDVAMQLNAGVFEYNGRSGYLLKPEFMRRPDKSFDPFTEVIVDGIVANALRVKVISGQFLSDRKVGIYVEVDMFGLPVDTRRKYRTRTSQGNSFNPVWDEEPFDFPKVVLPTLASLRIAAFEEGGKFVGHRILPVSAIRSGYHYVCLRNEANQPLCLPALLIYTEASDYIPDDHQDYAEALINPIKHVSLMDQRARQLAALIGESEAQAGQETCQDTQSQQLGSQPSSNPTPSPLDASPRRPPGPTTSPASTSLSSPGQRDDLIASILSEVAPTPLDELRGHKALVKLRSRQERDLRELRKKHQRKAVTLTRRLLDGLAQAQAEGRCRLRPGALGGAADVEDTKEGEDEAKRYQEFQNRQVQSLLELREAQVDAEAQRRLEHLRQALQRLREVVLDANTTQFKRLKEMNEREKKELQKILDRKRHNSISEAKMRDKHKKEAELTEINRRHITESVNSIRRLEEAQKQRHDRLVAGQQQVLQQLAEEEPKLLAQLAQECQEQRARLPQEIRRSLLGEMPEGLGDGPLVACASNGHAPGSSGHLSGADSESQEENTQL
Chain of Apoptotic protease-activating factor 1 (O14727 whole entry): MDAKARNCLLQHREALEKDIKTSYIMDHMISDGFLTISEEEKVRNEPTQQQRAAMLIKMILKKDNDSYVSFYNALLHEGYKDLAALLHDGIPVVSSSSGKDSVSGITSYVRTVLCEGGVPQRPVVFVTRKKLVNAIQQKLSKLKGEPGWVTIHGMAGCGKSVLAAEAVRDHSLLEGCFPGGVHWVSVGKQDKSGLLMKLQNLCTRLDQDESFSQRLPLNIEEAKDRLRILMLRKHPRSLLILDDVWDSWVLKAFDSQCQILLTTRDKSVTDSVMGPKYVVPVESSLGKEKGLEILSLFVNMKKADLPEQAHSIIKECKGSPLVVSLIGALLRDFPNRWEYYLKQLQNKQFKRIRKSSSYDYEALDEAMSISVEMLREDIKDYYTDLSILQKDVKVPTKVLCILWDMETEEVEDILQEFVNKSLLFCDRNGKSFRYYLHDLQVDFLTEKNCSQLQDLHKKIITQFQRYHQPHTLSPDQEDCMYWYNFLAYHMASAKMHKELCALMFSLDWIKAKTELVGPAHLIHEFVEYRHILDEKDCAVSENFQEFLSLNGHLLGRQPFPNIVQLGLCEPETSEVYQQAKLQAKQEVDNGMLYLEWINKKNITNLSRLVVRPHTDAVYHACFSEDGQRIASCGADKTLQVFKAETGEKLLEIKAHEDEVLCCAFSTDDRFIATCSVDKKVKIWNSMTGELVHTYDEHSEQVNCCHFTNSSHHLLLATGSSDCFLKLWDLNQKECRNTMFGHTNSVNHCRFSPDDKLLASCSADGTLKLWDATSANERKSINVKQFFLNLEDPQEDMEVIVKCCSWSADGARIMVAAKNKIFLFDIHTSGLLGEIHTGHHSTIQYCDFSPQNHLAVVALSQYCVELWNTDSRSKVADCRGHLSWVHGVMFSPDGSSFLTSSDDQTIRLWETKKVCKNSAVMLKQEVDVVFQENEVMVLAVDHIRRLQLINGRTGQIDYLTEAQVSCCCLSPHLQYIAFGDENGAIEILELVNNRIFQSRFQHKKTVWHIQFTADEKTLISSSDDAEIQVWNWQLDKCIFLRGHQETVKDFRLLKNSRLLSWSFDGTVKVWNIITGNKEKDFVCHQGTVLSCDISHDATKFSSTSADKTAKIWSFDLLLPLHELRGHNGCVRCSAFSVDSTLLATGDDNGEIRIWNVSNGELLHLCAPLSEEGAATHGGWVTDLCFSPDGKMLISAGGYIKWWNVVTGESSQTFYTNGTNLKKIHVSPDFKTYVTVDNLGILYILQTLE

One may read the AC50 as the concentration at which the activity in the assay is half-maximal. Consider `N#C[C@H]1[C@@H](c2ccccc2C2=CCCCC2)[C@H](CO)N1S(=O)(=O)c1ccccc1`, for which the AC50 in assay [1] is > 47 µM (inactive).
Broadly, the IC50 is the concentration that inhibits the measured activity by half. Consider `CCc1ccc(NC2=CC(=O)C(=O)c3ccccc32)cc1`, for which, in assay [2], the IC50 was 3.54 µM (active). In addition, the figures for the AC50 in assay [3] and in [4] were 3.59 µM (active) and 6.77 µM (active), respectively.
`O=C(C[S+]([O-])c1cccc(C(F)(F)F)c1)Nc1ccc(Cl)cc1Cl` (configuration not stated): the IC50 is > 122 µM (inactive) in assay [5] and 56.9 µM (inactive) in assay [6].
`COc1ccccc1N=C(S)NNC(=O)c1nn(C)c(C)c1Br`: the results for the IC50 in assay [7] and in assay [8] were > 100 µM (inactive) and > 122 µM (inactive), respectively.
As usually defined, the EC50 is the concentration that produces a half-maximal response. By CC50 is commonly meant the concentration that lowers cell viability or growth by half. `COc1ccccc1Nc1nc(-c2cccs2)cs1`: the EC50 in assay [9] and in assay [10] was > 67.5 µM (inactive) each time. Moreover, in assay [11], the CC50 was 47.2 µM (active).
Turning to `Cn1ccs/c1=N\C(=O)c1ccc([N+](=O)[O-])o1`, the EC50 in assay [12] is < 0.1 µM (active); in assay [13], 0.03 µM (active); in assay [15], 24 µM (active). Moreover, the AC50 in assay [14] is 6.3 µM (active).
Consider `COc1ccc(C#Cc2ccc(C(=O)N3CCC[C@@H](O)C3)c(F)c2)cc1`, for which the IC50 in assay [16] was found to be 0.509 µM.
Regarding `CC(=O)N1c2ccc(S(=O)(=O)N3CCC(C(=O)N4CCN(c5cccc(C(F)(F)F)c5)CC4)CC3)cc2CC1C` (configuration not stated), the AC50 in [17] is 1.54 µM (active); in [18] it was 4.45 µM (active); in [19] it was 7.43 µM (active); in assay [20] it was 1.47 µM (active); in assay [21], 1.28 µM (active); in [22] it was > 70 µM (inactive).

Source of the values: ChEMBL document CHEMBL1201862, “PubChem BioAssay data set” (2004).
